In paper PMC8881501, “Identification of SARS-CoV-2 inhibitors targeting Mpro and PLpro using in-cell-protease assay” (Communications Biology, 2022):
“And” between values parts separate entries of the source, which are not always exact repeats. Equal entries are not always repeated. Non-standard residues stand in square brackets, D forms with d. Residues, ends and D or L forms follow the SMILES beside them. Nle = CCCC[C@H](N)C(=O)O

How the values were obtained:
[1] = test system: Mpro; settings: thermal shift assay as worded; cited from earlier work
[2] = in vitro; settings: human, CC50, Huh-7.5 cells, alamarBlue reduction
[3] = target: SARS-CoV-2 PLpro (Severe acute respiratory syndrome coronavirus 2, UniProt P0DTC1); assay: cell-based; settings: HEK-293T
[4] = test system: SARS-CoV-2; assay: microbe, parasite or virus in culture; assay type: cell-based
[5] = test system: SARS-CoV-2; assay: Time of addition (pre-treatment) experiment in Huh-7.5 cells, plaque assay; assay type: cell-based; settings: Huh-7.5, pretreatment
[6] = test system: SARS-CoV-2; assay type: cell-based; settings: Huh-7.5, MOI 0.1, 24 h.p.i., anti-N IFA
[7] = target: T1, SARS-CoV-2 Mpro (Severe acute respiratory syndrome coronavirus 2, UniProt P0DTC1); assay: In-cell protease (ICP) assay, Mpro construct in HEK293T cells; assay type: cell-based; settings: HEK-293T
[8] = target: T1, SARS-CoV-2 Mpro; assay: biochemical; settings: Mpro 200 nM, substrate 10 μM, 1 h pre-incubation; read-out: IC50
Protocol: A cleavage site is indicated by an asterisk. […] N = 3, values are represented as mean ± SE.
For the determination of half-maximal inhibitory concentrations (IC50) of MG-101 and GC376 (BPS Bioscience), a synthetic substrate of Mpro containing FRET pair and Mpro nsp4/5 cleavage site (indicated by an arrow, Dabcyl-KTSAVLQ ↓ SGFRKME-Edans) (BPS Bioscience) was used for the FRET-based cleavage assay. The assay was performed in 96-well, black, flat-bottomed microtiter plates (Greiner Bio-One, Germany) with a final volume of 50 μl. Mpro (a final concentration of 200 nM) was pre-incubated for 1 h at 22 °C with compounds at different concentrations in the assay buffer (20 mM HEPES (pH 7), 0.5 mM EDTA, 1 mM dithiothreitol, 5% glycerol). The substrate was then added at a final concentration of 10 μM to the reaction mixture and the reaction was incubated for 4 h at 22 °C. The readings for the different concentrations of the inhibitor compounds incubated with the substrate without Mpro were measured as a blank. The fluorescence signals (excitation/emission, 360 nm/460 nm) of released EDANS were measured using Infinite 200 PRO multimode plate reader (Tecan, USA). The results were plotted as dose inhibition curves using nonlinear regression with a variable slope to determine the IC50 values of inhibitor compounds using GraphPad Prism 9.0.

[9] = read-out: mEmerald-NLS nuclear/total fluorescence (protease activity) normalized to untreated cells, 1 μM, HEK293T, Fig 2A replicate data, untreated control = 100
[10] = read-out: mEmerald-NLS nuclear/total fluorescence (protease activity) normalized to untreated cells, 10 μM, HEK293T, Fig 2A replicate data, untreated control = 100

In the case of CCCC[C@@H](C=O)NC(=O)[C@H](CC(C)C)NC(=O)[C@H](CC(C)C)NC(C)=O [MG-101] (Ac-Leu-Leu-[Nle]-aldehyde), the IC50 [1] is given as 8.6 µM, the CC50 at 24 h [2] is given as 37 µM and the remaining activity at 1 µM [3, 9] is given as 68%. For the same molecule, the remaining activity at 10 µM [3, 10] was 70%, the EC50 ([4]; Severe acute respiratory syndrome coronavirus 2, Huh7.5, 24 h) was 0.038 µM and the “virus titer at 24 h.p.i., Fig 6A data” value ([4]; single drug 1 μM, Huh 7.5, replicates) was 48000 and 56000 and 44000. For the same molecule, the “effect of pre-treatment on virus production / entry” value [5] was “affect the virus entry”, the “reduction in virus titer on pretreatment of cells” value [5] was 1 log and the “inhibition of virus spread compared to untreated controls” value [6] was 95%. The remaining activity at 1 µM [7, 9] was 22%, the remaining activity at 10 µM [7, 10] was 8.9% and the IC50 [8] was 2.89 ± 0.86 µM.
